# From PubChem BioAssay AID1963958 (Molecular Pharmacology Branch, DTP, NCI, 2024)
# pIC50: −log10 of the molar value.
# Tested on: MDA-MB-231 multicell spheroids, viability
# Assay: Anticancer human tumor MDA-MB-231 cell line growth inhibition [PI3K];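 note: spheroids exposed to agents for seven days before reading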;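 for viability, T/C: percent of vehicle control luminescence with DMSO treated spheroids as 100%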
# Conditions: for pIC50: curve of first compound; for viability, T/C: stronger effect = lower value
# In short: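 Agents were dosed from a top concentration near clinical Cmax (otherwise 10 microM) in half-log decrements, alone or combined with PI3K inhibitors. The spheroids contain tumor cells plus endothelial (HUVEC) and MSC stroma; viability is measured.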
# [1] = second compound 0.0316 µM, first compound 0.0316 µM
# [2] = second compound 0.0316 µM, first compound 0.1 µM
# [3] = second compound 0.0316 µM, first compound 0.316 µM
# [4] = second compound 0.0316 µM, first compound 1 µM
# [5] = second compound 0.1 µM, first compound 0.0316 µM
# [6] = second compound 0.1 µM, first compound 0.1 µM
# [7] = second compound 0.1 µM, first compound 0.316 µM
# [8] = second compound 0.1 µM, first compound 1 µM
# [9] = second compound 0.316 µM, first compound 0.0316 µM
# [10] = second compound 0.316 µM, first compound 0.1 µM
# [11] = second compound 0.316 µM, first compound 0.316 µM
# [12] = second compound 0.316 µM, first compound 1 µM
# [13] = second compound 1 µM, first compound 0.0316 µM
# [14] = second compound 1 µM, first compound 0.1 µM
# [15] = second compound 1 µM, first compound 0.316 µM
# [16] = second compound 1 µM, first compound 1 µM
# [17] = second compound 3.16 µM, first compound 0.0316 µM
# [18] = second compound 3.16 µM, first compound 0.1 µM
# [19] = second compound 3.16 µM, first compound 0.316 µM
# [20] = second compound 3.16 µM, first compound 1 µM
# [21] = second compound 10 µM, first compound 0.0316 µM
# [22] = second compound 10 µM, first compound 0.1 µM
# [23] = second compound 10 µM, first compound 0.316 µM
# [24] = second compound 10 µM, first compound 1 µM
smiles,measurement,setting,value
CC(C)NCC(C(=O)N1CCN(c2ncnc3c2C(C)CC3O)CC1)c1ccc(Cl)cc1 (centres undefined) + CC(Nc1ncnc2nc[nH]c12)c1cc2cccc(Cl)c2c(=O)n1-c1ccccc1,pIC50,second compound 0.0316 µM,5.06
same,pIC50,second compound 0.1 µM,5.06
same,pIC50,second compound 0.316 µM,5.19
same,pIC50,second compound 1 µM,5.25
same,pIC50,second compound 3.16 µM,5.73
same,pIC50,second compound 10 µM,7.02
same,"viability, T/C",[1],103%
same,"viability, T/C",[2],98%
same,"viability, T/C",[3],97.1%
same,"viability, T/C",[4],91%
same,"viability, T/C","second compound 0.0316 µM, first compound 3.16 µM",64.3%
same,"viability, T/C","second compound 0.0316 µM, first compound 10 µM",47.9%
same,"viability, T/C",[5],106%
same,"viability, T/C",[6],88.5%
same,"viability, T/C",[7],91.8%
same,"viability, T/C",[8],82.2%
same,"viability, T/C","second compound 0.1 µM, first compound 3.16 µM",66.3%
same,"viability, T/C","second compound 0.1 µM, first compound 10 µM",46.8%
same,"viability, T/C",[9],86%
same,"viability, T/C",[10],102%
same,"viability, T/C",[11],86.8%
same,"viability, T/C",[12],77.9%
same,"viability, T/C","second compound 0.316 µM, first compound 3.16 µM",62.1%
same,"viability, T/C","second compound 0.316 µM, first compound 10 µM",43%
same,"viability, T/C",[13],92.1%
same,"viability, T/C",[14],82.3%
same,"viability, T/C",[15],76.5%
same,"viability, T/C",[16],65.9%
same,"viability, T/C","second compound 1 µM, first compound 3.16 µM",55.2%
same,"viability, T/C","second compound 1 µM, first compound 10 µM",44.3%
same,"viability, T/C",[17],63.5%
same,"viability, T/C",[18],62.1%
same,"viability, T/C",[19],63%
same,"viability, T/C",[20],51.6%
same,"viability, T/C","second compound 3.16 µM, first compound 3.16 µM",45.3%
same,"viability, T/C","second compound 3.16 µM, first compound 10 µM",39.1%
same,"viability, T/C",[21],52.5%
same,"viability, T/C",[22],48.6%
same,"viability, T/C",[23],49.3%
same,"viability, T/C",[24],40.7%
same,"viability, T/C","second compound 10 µM, first compound 3.16 µM",37.9%
same,"viability, T/C","second compound 10 µM, first compound 10 µM",31.8%
CCN1CCN(Cc2ccc(Nc3ncc(F)c(-c4cc(F)c5nc(C)n(C(C)C)c5c4)n3)nc2)CC1 + CC(Nc1ncnc2nc[nH]c12)c1cc2cccc(Cl)c2c(=O)n1-c1ccccc1,pIC50,second compound 0.0316 µM,< 6.00
same,pIC50,second compound 0.1 µM,< 6.00
same,pIC50,second compound 0.316 µM,6.01
same,pIC50,second compound 1 µM,7.07
same,pIC50,second compound 3.16 µM,7.70
same,pIC50,second compound 10 µM,> 8.50
same,"viability, T/C","second compound 0.0316 µM, first compound 0.00316 µM",96.7%
same,"viability, T/C","second compound 0.0316 µM, first compound 0.01 µM",93.2%
same,"viability, T/C",[1],81.4%
same,"viability, T/C",[2],58.9%
same,"viability, T/C",[3],57.1%
same,"viability, T/C",[4],56.8%
same,"viability, T/C","second compound 0.1 µM, first compound 0.00316 µM",98.2%
same,"viability, T/C","second compound 0.1 µM, first compound 0.01 µM",84.4%
same,"viability, T/C",[5],79%
same,"viability, T/C",[6],59.1%
same,"viability, T/C",[7],55%
same,"viability, T/C",[8],51.9%
same,"viability, T/C","second compound 0.316 µM, first compound 0.00316 µM",92.9%
same,"viability, T/C","second compound 0.316 µM, first compound 0.01 µM",80.7%
same,"viability, T/C",[9],71.2%
same,"viability, T/C",[10],56.8%
same,"viability, T/C",[11],47.4%
same,"viability, T/C",[12],53.5%
same,"viability, T/C","second compound 1 µM, first compound 0.00316 µM",78.4%
same,"viability, T/C","second compound 1 µM, first compound 0.01 µM",70.8%
same,"viability, T/C",[13],53.6%
same,"viability, T/C",[14],47.8%
same,"viability, T/C",[15],50.3%
same,"viability, T/C",[16],49.6%
same,"viability, T/C","second compound 3.16 µM, first compound 0.00316 µM",62.1%
same,"viability, T/C","second compound 3.16 µM, first compound 0.01 µM",54.5%
same,"viability, T/C",[17],49%
same,"viability, T/C",[18],36.8%
same,"viability, T/C",[19],40.5%
same,"viability, T/C",[20],46.7%
same,"viability, T/C","second compound 10 µM, first compound 0.00316 µM",46.5%
same,"viability, T/C","second compound 10 µM, first compound 0.01 µM",40.7%
same,"viability, T/C",[21],37.2%
same,"viability, T/C",[22],29.3%
same,"viability, T/C",[23],41.1%
same,"viability, T/C",[24],49.6%
